The source of these data is patent US20120122840A1, “COMPOUNDS AND THERAPEUTIC USES THEREOF” (Myrexis, Inc., priority 2009, published 2012).

SMILES strings stand for the structures.

Common to all, as to assay: CellTiter Glo cell viability, 7 days
Holding throughout (assay type): cell-based

The subject of assay [1] is DU-145. As to conditions: Homo sapiens, 168 h, prostate, read-out: 7 day IC50. The protocol: (§1) The compounds of the present invention were tested against a panel of cancer cells to determine the effect on cell viability. Viability was determined by measuring cellular ATP levels using CellTiter Glo reagent (Promega, Madison, Wis.).
(§2) MATERIALS: • A. Cancer cell lines obtained from ATCC or DSMZ • B. RPMI supplemented with 10% FBS/L-glutamine/NEAA/HEPES/Na-Pyruvate • C. DMEM supplemented with 10% FBS and L-glutamine. • B. Compounds, typically 50 mM stocks diluted in DMSO; • C. Clear, flat, TC-surface bottomed 96-well microplates (Corning #3595) • D. CellTiter-Glo® Luminescent Cell Viability Assay (Promega #G7573)
(§3) METHODS: • 1. Cells were plated at densities of 2000-5000 cells per well in 100 μl volume on a 96-well plate, and were incubated overnight. • 2. Test compound(s) were serially diluted to the desired 250× concentration. • 3. For each concentration of compound to be tested, 0.4 μl of 250× compound was added in triplicate to the cell plates. Plates were then incubated at 37° C. for 7 days. • 4. 100 μL of prepared CellTiter Glo reagent was added to treated cells, and plates were gently mixed for 2 minutes, and equilibrated for 10 minutes at room temperature. • 5. Luminescence was measured and the viability of treated cells relative to DMSO control was calculated.
(§4) Cancer cell lines were treated with TTK inhibitor for 7 days and cell viability was measured using the CellTiter Glo assay (Promega, Madison, Wis.).

The test system of assay [2] is SW-480. As to conditions: Homo sapiens, SW480, 168 h, colon, read-out: 7 day IC50. Here is the method:
as §1, §2, §3, §4

Assay [3] concerns IGR-OV1. As to conditions: Homo sapiens, IGROV-1, 168 h, ovarian, read-out: 7 day IC50. Here is the method: as §1, §2, §3, §4
Assay [4] has as its system OVCAR-5. As to conditions: Homo sapiens, 168 h, ovarian, read-out: 7 day IC50. Here is the method:
as §1, §2, §3, §4

Assay [5] deals with DU4475. As to conditions: Homo sapiens, DU-4475, 168 h, breast, read-out: 7 day IC50. The protocol:
as §1, §2, §3, §4

Assay [6] concerns PANC1. The following applies: Homo sapiens, PANC-1, 168 h, pancreas, read-out: 7 day IC50. The protocol:
as §1, §2, §3, §4

The test system of assay [7] is MDA-MB-231. The following applies: Homo sapiens, 168 h, breast, read-out: 7 day IC50. Here is the method:
as §1, §2, §3, §4

The subject of assay [8] is OPM-2. The following applies: Homo sapiens, 168 h, blood, read-out: 7 day IC50. Here is the method: as §1, §2, §3, §4
In assay [9] the test system is BxPC-3. The following applies: Homo sapiens, 168 h, pancreas, read-out: 7 day IC50. Here is the method: as §1, §2, §3, §4
Assay [10] relates to PC-3. The following applies: Homo sapiens, 168 h, prostate, read-out: 7 day IC50. The protocol:
as §1, §2, §3, §4

Assay [11] deals with HCC827. The following applies: Homo sapiens, 168 h, lung, read-out: 7 day IC50. Here is the method:
as §1, §2, §3, §4

For assay [12], the system named is MCF-7. The following applies: Homo sapiens, MCF7, 168 h, breast, read-out: 7 day IC50. Here is the method: as §1, §2, §3, §4
Assay [13] deals with BT-474. As to conditions: Homo sapiens, 168 h, breast, read-out: 7 day IC50. Here is the method: as §1, §2, §3, §4
For assay [14], the system named is KARPAS-299. The following applies: Homo sapiens, 168 h, blood, read-out: 7 day IC50. The protocol: as §1, §2, §3, §4
Assay [15] relates to SK-BR-3. The following applies: Homo sapiens, 168 h, breast, read-out: 7 day IC50. The protocol: as §1, §2, §3, §4
In assay [16] the test system is NCI-N87. As to conditions: Homo sapiens, 168 h, gastric, read-out: 7 day IC50. The protocol:
as §1, §2, §3, §4

Assay [17] deals with ZR-75-1. As to conditions: Homo sapiens, 168 h, breast, read-out: 7 day IC50. The protocol:
as §1, §2, §3, §4

In assay [18] the test system is OVCAR-3. The following applies: Homo sapiens, 168 h, ovarian, read-out: 7 day IC50. Here is the method:
as §1, §2, §3, §4

The subject of assay [19] is 786-0. The following applies: Homo sapiens, 168 h, kidney, read-out: 7 day IC50. The protocol: as §1, §2, §3, §4
The subject of assay [20] is DMS-114. The following applies: Homo sapiens, 168 h, lung, read-out: 7 day IC50. Here is the method: as §1, §2, §3, §4
For assay [21], the system named is HCT-15. As to conditions: Homo sapiens, 168 h, colon, read-out: 7 day IC50. Here is the method: as §1, §2, §3, §4
Assay [22] has as its system U-87MG. As to conditions: Homo sapiens, 168 h, CNS, read-out: 7 day IC50. The protocol: as §1, §2, §3, §4
Assay [23] concerns MDA-MB-436. As to conditions: Homo sapiens, 168 h, breast, read-out: 7 day IC50. The protocol: as §1, §2, §3, §4
In assay [24] the test system is Colo-205. The following applies: Homo sapiens, 168 h, colon, read-out: 7 day IC50. Here is the method: as §1, §2, §3, §4

By IC50 is commonly meant the midpoint of a concentration-inhibition curve. Turning to `Cc1cc(N2CCOCC2)ccc1Nc1nc(NC2CCCCC2)c2nc[nH]c2n1` [N6-cyclohexyl-N2-(2-methyl-4-morpholino-phenyl)-9H-purine-2,6-diamine], the IC50 in [1] turned out to be 370 nM; in assay [2], 140 nM; in [3], 580 nM; in [4], 150 nM; in [5], 72 nM; in assay [6], 3700 nM. Further, the IC50 in [7] came out at 28000 nM; in assay [8], 99 nM; in assay [9] it was 120 nM; in assay [10], 200 nM; in assay [11] it was 94 nM; in [12] it was 61 nM. Moreover, the IC50 in assay [13] was above 30000 nM; in [14], 96 nM; in [15], 56 nM; in assay [16], 2100 nM; in assay [17] it was 56 nM; in [18], 150 nM. The IC50 worked out at 1200 nM in assay [19]; 180 nM in [20]; 280 nM in assay [21]; 670 nM in assay [22]; 8700 nM in assay [23]; 90 nM in assay [24].
